According to PMC10075506, “Synthesis and biological evaluation of flavonoid-based IP6K2 inhibitors” (Journal of Enzyme Inhibition and Medicinal Chemistry, 2023):

Tested on: not listed separately
Test: in vitro
Settings: PAMPA
Excerpt: Supporting Information Table 1.
artificial membrane permeability assay (PAMPA) as described previously (reference). The apparent permeability
(ranitidine, nadolol, hydrochlorothiazide).
Data are mean ± S.D. (n=3).
Reference: Oh, M.H., Lee, H.J., Jo, S.H., et al. Development of Cassette PAMPA for Permeability Screening. Biol Pharm

Row | SMILES | Papp [×10⁻⁶ cm/s] | Permeability class
1 | CNC(=C[N+](=O)[O-])NCCSCc1ccc(CN(C)C)o1 [Ranitidine, ranitidine] | < 0.18 | Low
2 | COCCc1ccc(OCC(O)CNC(C)C)cc1 (centres unmarked) [Metoprolol, metoprolol] | 3.45 ± 0.158 | High
3 | CC(C)(C)NCC(O)COc1cccc2c1CC(O)C(O)C2 (centres unmarked) [Nadolol, nadolol] | 0.089 ± 0.007 | Low
4 | NS(=O)(=O)c1cc2c(cc1Cl)NCNS2(=O)=O [Hydrochlorothiazide, hydrochlorothiazide] | < 0.18 | Low
5 | O=C(N[C@H](CO)[C@H](O)c1ccc([N+](=O)[O-])cc1)C(Cl)Cl [Chloramphenicol, chloramphenicol] | 4.67 ± 0.063 | High

Tested on: not given
Test: not given
Settings: not given

Row | SMILES | melting point [°C]
6 | O=c1cc(-c2ccccc2)oc2cc(F)ccc12 | 96 to 98
7 | COc1ccc(-c2cc(=O)c3ccc(F)cc3o2)cc1 | 228 to 230
8 | O=C(O)c1ccc(-c2cc(=O)c3c(O)cc(O)cc3o2)cc1 [Compound 16c, 4–(5,7-Dihydroxy-4-oxo-4H-chromen-2-yl)benzoic acid] | 337 to 339
9 | O=C(O)c1cccc(-c2cc(=O)c3cc(F)c(F)cc3o2)c1 | 272 to 274
10 | O=c1cc(-c2ccccc2)oc2cccc(F)c12 | 144 to 146
11 | O=c1cc(-c2ccc(O)cc2)oc2ccc(F)cc12 | 292 to 294
12 | O=c1cc(-c2ccc(O)cc2)oc2cccc(F)c12 | 272 to 274
13 | COc1ccc(-c2cc(=O)c3c(F)cccc3o2)cc1 | 178 to 180
14 | COc1ccc(-c2cc(=O)c3cc(F)ccc3o2)cc1 | 160 to 162
15 | COc1ccc(-c2cc(=O)c3c(F)cc(F)cc3o2)cc1 | 256 to 258
16 | O=c1cc(-c2ccc(O)cc2)oc2cc(F)ccc12 | 310 to 312
17 | O=c1cc(-c2ccc(O)cc2)oc2cc(F)cc(F)c12 | 228 to 230
18 | O=C(O)c1cccc(-c2cc(=O)c3cc(O)c(O)cc3o2)c1 [Compound 16b, 3–(6,7-Dihydroxy-4-oxo-4H-chromen-2-yl)benzoic acid] | 416 to 418
19 | COc1ccc(-c2cc(=O)c3cc(F)c(F)cc3o2)cc1 | 200 to 202
20 | O=c1cc(-c2ccc(O)cc2)oc2cc(F)c(F)cc12 | 302 to 304

Target: T1, recombinant human IP6K2 (Homo sapiens, UniProt Q9UHH9)
T1 construct: made in house; host or cells: Sf9 insect cells (baculovirus, pFASTBAC1)
T1 sequence (Q9UHH9 1-426): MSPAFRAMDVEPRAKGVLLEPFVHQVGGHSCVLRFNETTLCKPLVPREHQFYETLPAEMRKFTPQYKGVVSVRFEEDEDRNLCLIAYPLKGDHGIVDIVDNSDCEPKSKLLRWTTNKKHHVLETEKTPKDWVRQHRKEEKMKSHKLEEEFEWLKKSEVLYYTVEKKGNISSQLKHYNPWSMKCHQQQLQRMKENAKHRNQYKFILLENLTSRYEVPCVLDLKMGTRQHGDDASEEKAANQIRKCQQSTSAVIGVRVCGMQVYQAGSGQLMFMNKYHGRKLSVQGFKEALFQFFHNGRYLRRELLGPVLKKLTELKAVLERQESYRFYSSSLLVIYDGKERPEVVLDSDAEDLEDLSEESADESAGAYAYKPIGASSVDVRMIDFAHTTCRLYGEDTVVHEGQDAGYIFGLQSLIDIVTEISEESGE
Test: ADP-Glo kinase assay, IP6K2
Format: biochemical
Settings: IC50 compared with quercetin
Experimental: Inhibition activity of the synthesised compounds against IP6K2 was assessed using ADP-Glo™ Kinase Assay (Promega). Kinase reaction mixtures were first shaking-incubated with individual drugs (diluted in DMSO) for pre-incubation at RT for 15 min, and then ATP was added (final 10 µM) to initiate the reaction. 20 ng of recombinant human IP6K2 protein was used per 15 µL of IP6K2 reaction mixture (50 mM Tris-HCl, pH 6.8, 10 mM MgCl2, 2.5 mM DTT, 0.02% Triton X-100, 10 µM IP6). […] Each detection set was prepared on 96-well (25 µL kinase reaction) as duplicates. Resulting enzyme activity was calculated as following; Activity (%) = ([ADPexperimental]/[ADPDMSO])×100. For IC50 estimation of compounds, kinase assay was prepared on 384-well plates (20 ng of recombinant human IP6K2 protein was used per 5 µL kinase reaction mixture) as duplicates. The final concentrations for IP6K2, IP6, and ATP were 80 nM, 10 μM, and 10 μM, respectively. […] IP6K1 and IP6K3 assays were performed by Liao et al.’s conditions.[25] The final concentrations for IP6K1, IP6, and ATP were 60 nM, 100 μM, and 1 mM, respectively. […] All statistical analyses including IC50 estimation was performed using Prism 7 or Prism 9 (Graphpad Software).
Full-length human IP6K1, IP6K2, or IP6K3 cDNA was subcloned into pFASTBAC1 plasmid (Gibco) with an N-terminal FLAG epitope sequence, and baculovirus was generated according to the manufacturer’s instructions. Sf9 insect cells were infected with baculovirus and incubated for 72 h. The cells were resuspended in lysis buffer [20 mM Tris–HCl (pH 7.9), 500 mM NaCl, 4 mM MgCl2, 0.4 mM EDTA, 2 mM DTT, 20% glycerol, 1 mM PMSF, and protease inhibitor cocktail (Roche)] and then disrupted with a Dounce homogeniser (pestle A, 3 series of 10 strokes with 10 min interval).

Row | SMILES | fold more potent IP6K2 inhibition than quercetin [fold]
21 | Cn1cc(-c2oc3cc(O)c(O)cc3c(=O)c2O)cn1 [Compound 23b, 3,6,7-Trihydroxy-2–(1-methyl-1H-pyrazol-4-yl)-4H-chromen-4-one] | 2

Same assay, conditions: IC50 experiment up to 100 µM

Row | SMILES | inhibitory activity against IP6K2 (in words)
22 | Cc1ccc(-c2oc3cc(O)c(O)cc3c(=O)c2O)cc1C [Compound 20e, 2–(3,4-Dimethylphenyl)-3,6,7-trihydroxy-4H-chromen-4-one] | completely lost their inhibitory activity against IP6K2
23 | O=c1c(O)c(-c2ccc(F)c(F)c2)oc2cc(O)c(O)cc12 [Compound 20h, 2–(3,4-Difluorophenyl)-3,6,7-trihydroxy-4H-chromen-4-one] | completely lost their inhibitory activity against IP6K2

Same assay, conditions: Table 1; IP6K2 80 nM, IP6 10 μM, ATP 10 μM; read-out: IP6K2 IC50

Row | SMILES | IC50 [µM]
24 | O=C(O)c1cccc(-c2cc(=O)c3c(O)cc(O)cc3o2)c1 [Compound 16d, 3–(5,7-Dihydroxy-4-oxo-4H-chromen-2-yl)benzoic acid] | 2.89
25 | O=C(O)c1ccc(-c2cc(=O)c3c(O)cc(O)cc3o2)cc1 [Compound 16c, 4–(5,7-Dihydroxy-4-oxo-4H-chromen-2-yl)benzoic acid] | 41.9
26 | O=C(O)c1ccc(-c2cc(=O)c3cc(O)c(O)cc3o2)cc1 [Compound 16a, 4–(6,7-Dihydroxy-4-oxo-4H-chromen-2-yl)benzoic acid] | 9.07
27 | O=C(O)c1cccc(-c2cc(=O)c3cc(O)c(O)cc3o2)c1 [Compound 16b, 3–(6,7-Dihydroxy-4-oxo-4H-chromen-2-yl)benzoic acid] | 1.67

Same assay, conditions: Table 2; duplicates, 0.017 to 100 µM, mean ± SD; IP6K2 80 nM, IP6 10 μM, ATP 10 μM; read-out: IP6K2 IC50

Row | SMILES | IC50 [µM]
28 | O=c1c(O)c(-c2ccc(O)c(O)c2)oc2cc(O)c(O)cc12 [Compound 20a, 2–(3,4-Dihydroxyphenyl)-3,6,7-trihydroxy-4H-chromen-4-one] | 1.77 ± 0.15
29 | O=c1c(O)c(-c2cccc(O)c2)oc2cc(O)c(O)cc12 [Compound 20q, 3,6,7-Trihydroxy-2–(3-hydroxyphenyl)-4H-chromen-4-one] | 2.96 ± 0.19
30 | Cc1ccc(-c2oc3cc(O)c(O)cc3c(=O)c2O)cc1 [Compound 20c, 3,6,7-Trihydroxy-2-(p-tolyl)-4H-chromen-4-one] | > 100
31 | Cc1ccc(-c2oc3cc(O)c(O)cc3c(=O)c2O)cc1C [Compound 20e, 2–(3,4-Dimethylphenyl)-3,6,7-trihydroxy-4H-chromen-4-one] | > 100
32 | O=c1c(O)c(-c2cccc(F)c2)oc2cc(O)c(O)cc12 [Compound 20g, 2–(3-Fluorophenyl)-3,6,7-trihydroxy-4H-chromen-4-one] | 38.7 ± 2.9
33 | O=c1c(O)c(-c2cccs2)oc2cc(O)c(O)cc12 [Compound 23c, 3,6,7-Trihydroxy-2-(thiophen-2-yl)-4H-chromen-4-one] | 73.3 ± 12.8
34 | O=c1c(O)c(-c2ccc(O)cc2)oc2cc(O)c(O)cc12 [Compound 20p, 3,6,7-Trihydroxy-2–(4-hydroxyphenyl)-4H-chromen-4-one] | 22.6 ± 0.3
35 | O=c1c(O)c(-c2ccc3ccccc3c2)oc2cc(O)c(O)cc12 [Compound 23a, 3,6,7-Trihydroxy-2-(naphthalen-2-yl)-4H-chromen-4-one] | 97.8 ± 1.7
36 | O=c1c(O)c(-c2cccc(Cl)c2)oc2cc(O)c(O)cc12 [Compound 20l, 2–(3-Chlorophenyl)-3,6,7-trihydroxy-4H-chromen-4-one] | 73.2 ± 3.2
37 | O=c1c(O)c(-c2ccc(C(F)(F)F)cc2)oc2cc(O)c(O)cc12 [Compound 20i, 3,6,7-Trihydroxy-2–(4-(trifluoromethyl)phenyl)-4H-chromen-4-one] | > 100
38 | O=C(O)c1ccc(-c2oc3cc(O)c(O)cc3c(=O)c2O)cc1 [Compound 20r, 4–(3,6,7-Trihydroxy-4-oxo-4H-chromen-2-yl)benzoic acid] | 3.93 ± 0.03
39 | Cn1cc(-c2oc3cc(O)c(O)cc3c(=O)c2O)cn1 [Compound 23b, 3,6,7-Trihydroxy-2–(1-methyl-1H-pyrazol-4-yl)-4H-chromen-4-one] | 1.79 ± 0.4
40 | O=c1c(O)c(-c2ccc(Cl)cc2)oc2cc(O)c(O)cc12 [Compound 20k, 2–(4-Chlorophenyl)-3,6,7-trihydroxy-4H-chromen-4-one] | 81.5 ± 3.3
41 | O=c1c(O)c(-c2cccc(C(F)(F)F)c2)oc2cc(O)c(O)cc12 [Compound 20j, 3,6,7-Trihydroxy-2–(3-(trifluoromethyl)phenyl)-4H-chromen-4-one] | > 100
42 | O=c1c(O)c(-c2cccc(Oc3ccccc3)c2)oc2cc(O)c(O)cc12 [Compound 20o, 3,6,7-Trihydroxy-2–(3-phenoxyphenyl)-4H-chromen-4-one] | 73.3 ± 12.7
43 | O=c1c(O)c(-c2ccc(F)cc2)oc2cc(O)c(O)cc12 [Compound 20f, 2–(4-Fluorophenyl)-3,6,7-trihydroxy-4H-chromen-4-one] | 61.9 ± 3.8
44 | O=c1c(O)c(-c2ccc(-c3ccccc3)cc2)oc2cc(O)c(O)cc12 [Compound 20m, 2-([1,1'-Biphenyl]-4-yl)-3,6,7-trihydroxy-4H-chromen-4-one] | > 100
45 | Cc1cccc(-c2oc3cc(O)c(O)cc3c(=O)c2O)c1 [Compound 20d, 3,6,7-Trihydroxy-2-(m-tolyl)-4H-chromen-4-one] | 38.8 ± 3.8
46 | O=c1c(O)c(-c2ccc(Oc3ccccc3)cc2)oc2cc(O)c(O)cc12 [Compound 20n, 3,6,7-Trihydroxy-2–(4-phenoxyphenyl)-4H-chromen-4-one] | > 100
47 | O=c1c(O)c(-c2ccc(F)c(F)c2)oc2cc(O)c(O)cc12 [Compound 20h, 2–(3,4-Difluorophenyl)-3,6,7-trihydroxy-4H-chromen-4-one] | > 100
48 | O=c1c(O)c(-c2ccccc2)oc2cc(O)c(O)cc12 [Compound 20b, 3,6,7-Trihydroxy-2-phenyl-4H-chromen-4-one] | 14.5 ± 0.9

Same assay, conditions: at concentrations of 10 and 50 µM, result in words

Row | SMILES | IP6K2-inhibitory activity in screening
49 | O=c1cc(-c2ccc(O)cc2)oc2cc(O)c(O)cc12 [Compound 2c] | inhibit IP6K2 more strongly than the corresponding compounds
50 | O=c1cc(-c2ccccc2)oc2cc(O)c(O)cc12 [Compound 2a] | inhibit IP6K2 more strongly than the corresponding compounds
51 | O=c1cc(-c2cccnc2)oc2cc(O)c(O)cc12 [Compound 2e] | inhibit IP6K2 more strongly than the corresponding compounds
